Assay results as given in patent US11267807B2, “Use of small molecule inhibitors to KLF10 for modulation of T regulatory cells and cancer immunotherapy” (THE BRIGHAM AND WOMEN'S HOSPITAL, INC., priority 2015, dated 2022).
Read-outs that look alike come from different tables or passages of the source.

How the values were obtained:
KLF10 [1] = target: T1, KLF10 (Homo sapiens, UniProt Q13118); assay: KLF10 CACCC-luciferase reporter assay in transfected HeLa cells; format: cell-based; design: host or cells: HeLa; settings: for inhibition at 100 µM: HeLa
T1 sequence (Q13118 1-480): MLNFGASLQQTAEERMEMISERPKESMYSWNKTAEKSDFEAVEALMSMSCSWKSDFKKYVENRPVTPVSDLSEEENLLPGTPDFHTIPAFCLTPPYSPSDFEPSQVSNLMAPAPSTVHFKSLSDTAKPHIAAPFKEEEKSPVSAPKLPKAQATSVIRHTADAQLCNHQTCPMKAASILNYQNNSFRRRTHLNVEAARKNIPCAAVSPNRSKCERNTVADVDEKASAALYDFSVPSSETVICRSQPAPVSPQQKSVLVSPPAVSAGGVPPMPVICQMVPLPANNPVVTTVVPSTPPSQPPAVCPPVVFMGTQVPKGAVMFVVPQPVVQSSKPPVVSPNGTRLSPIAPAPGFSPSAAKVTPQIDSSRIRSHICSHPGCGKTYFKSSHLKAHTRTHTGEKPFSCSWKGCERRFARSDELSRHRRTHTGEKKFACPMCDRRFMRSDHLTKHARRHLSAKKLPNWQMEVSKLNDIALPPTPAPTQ

GLI = target: T2, GLI (Homo sapiens, UniProt P08151); settings: 30 μM, transfected HEK293 cells; cited from earlier work
T2 construct: host or cells: HEK293 (transfected)
T2 sequence (P08151 1-1106): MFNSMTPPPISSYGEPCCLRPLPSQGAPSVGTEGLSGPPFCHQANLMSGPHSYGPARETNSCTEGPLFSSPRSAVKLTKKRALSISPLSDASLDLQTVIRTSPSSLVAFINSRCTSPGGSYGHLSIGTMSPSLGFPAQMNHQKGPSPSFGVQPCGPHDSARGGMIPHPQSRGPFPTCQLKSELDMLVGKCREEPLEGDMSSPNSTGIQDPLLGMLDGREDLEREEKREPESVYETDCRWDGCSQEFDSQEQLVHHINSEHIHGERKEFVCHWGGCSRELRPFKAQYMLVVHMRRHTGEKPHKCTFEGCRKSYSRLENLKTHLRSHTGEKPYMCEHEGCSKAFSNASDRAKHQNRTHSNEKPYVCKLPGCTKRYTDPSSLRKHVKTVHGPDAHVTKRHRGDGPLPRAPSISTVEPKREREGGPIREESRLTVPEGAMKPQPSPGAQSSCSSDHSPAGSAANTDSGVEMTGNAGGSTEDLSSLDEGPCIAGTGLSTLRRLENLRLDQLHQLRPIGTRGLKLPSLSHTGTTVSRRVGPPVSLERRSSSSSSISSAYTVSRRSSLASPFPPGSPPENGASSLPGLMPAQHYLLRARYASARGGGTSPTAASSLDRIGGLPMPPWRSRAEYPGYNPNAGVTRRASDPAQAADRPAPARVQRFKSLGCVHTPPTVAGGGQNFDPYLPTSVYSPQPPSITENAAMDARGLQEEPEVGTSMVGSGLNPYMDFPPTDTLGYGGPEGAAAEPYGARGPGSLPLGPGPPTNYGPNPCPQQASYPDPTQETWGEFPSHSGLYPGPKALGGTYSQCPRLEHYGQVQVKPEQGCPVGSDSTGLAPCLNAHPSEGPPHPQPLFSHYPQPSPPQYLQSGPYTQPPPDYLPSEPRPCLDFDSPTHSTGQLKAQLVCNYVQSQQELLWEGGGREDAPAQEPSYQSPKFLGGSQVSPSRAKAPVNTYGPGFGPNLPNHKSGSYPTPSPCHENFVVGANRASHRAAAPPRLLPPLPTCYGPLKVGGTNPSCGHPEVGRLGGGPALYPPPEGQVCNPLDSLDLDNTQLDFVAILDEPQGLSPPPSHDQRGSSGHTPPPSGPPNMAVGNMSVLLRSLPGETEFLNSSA

CD4+CD25− T cells = assay: T regulatory cell differentiation assay, flow cytometry; format: cell-based, mouse; settings: 3 days culture, FIG. 4A-4C
Procedure: Mouse spleens were meshed through a cell strainer into Phosphate Buffered Saline (PBS) with 2% Fetal Bovine Serum and 1% Penicillin/Streptomycin, and cells were collected by spinning at 1000 rpm for 10 min. CD4+CD25− T cells were purified by using CD4+CD25+ T cell isolation kit (Miltenyi Biotec) according to the manufacturer's instructions. Briefly, cells were incubated with Biotin-conjugated antibodies, followed by anti-biotin microbeads and PE-conjugated anti-CD25 antibody for 30 min on ice with gentle shaking. Mixtures were loaded into pre-washed LD columns in the Magnetic field, and CD4+ cells were collected and then incubated with anti-PE microbeads. Mixtures were loaded into pre-washed MS columns in the magnetic field to collect CD4+CD25− T cells (non-bound cell fraction). Cells were plated into 12-well plates pre-coated with 1 μg/mL anti-CD3e (eBioscience) overnight in RPMI1640 Medium with 10% FBS, 1% Penicillin/Streptomycin, 1% non-essential amino acids, and 2-mercaptoethanol, 1 μg/mL anti-CD28 (BD Biosciences), and 1 ng/mL TGF-β1 (Peprotech). Cells were cultured at 37° C. up to five days for the conversion of CD4+CD25− T cells to CD4+CD25+ T regs. For flow cytometry, cells were stained with anti-mouse CD25 Alexa Fluo®488 (eBioscience) and analyzed by using multicolor FACS (ARIA; BD Biosciences) as previously described.^12

Foxp3 = Foxp3 expression by qPCR during conversion of CD4+CD25− T cells to T regs; format: cell-based, mouse; settings: 50 μM, FIG. 5
Procedure: Taken together, these observations indicate that these compounds effectively suppress the KLF10 target gene Foxp3, a critical regulator of T reg cell differentiation.^28
T cells were suspended in TRIzol® reagent (Invitrogen), and total RNA was isolated according to the manufacturer's instructions. Reverse transcriptions were performed by using the Reverse Transcription Kit and QuantiTect SYBR Green reverse transcription-PCR kit from Qiagen for quantitative real-time quantitative PCR analysis on a Mx3000P real-time PCR system (Stratagene) following the manufacturer's instructions. Primers were used to detect mouse FoxP3 as previously described.^12
Mouse spleens were meshed through a cell strainer into Phosphate Buffered Saline (PBS) with 2% Fetal Bovine Serum and 1% Penicillin/Streptomycin, and cells were collected by spinning at 1000 rpm for 10 min. CD4+CD25− T cells were purified by using CD4+CD25+ T cell isolation kit (Miltenyi Biotec) according to the manufacturer's instructions. Briefly, cells were incubated with Biotin-conjugated antibodies, followed by anti-biotin microbeads and PE-conjugated anti-CD25 antibody for 30 min on ice with gentle shaking. […] For flow cytometry, cells were stained with anti-mouse CD25 Alexa Fluo®488 (eBioscience) and analyzed by using multicolor FACS (ARIA; BD Biosciences) as previously described.^12

B16 melanoma tumor = assay: In vivo B16 melanoma tumor model; design: species or system mice
prostate TRAMP-C2 tumors = assay: In vivo prostate TRAMP-C2 tumor model; settings: systemic delivery i.p. Day 3, 200 mg/kg, FIG. 13
TGF-beta1 = TGF-beta1 expression in CD4+ T cells isolated from B16 melanoma tumors; format: in vivo; settings: mice injected i.p., FIG. 14
KLF10 [2] = target: T1, KLF10; assay: Gel mobility shift assay, KLF10 DNA-binding activity; design: GST (N); purchased Novus Biologicals
Procedure: The identified small molecule compounds were next examined for effects on KLF10 DNA-protein binding.
KLF10 recombinant protein was obtained from Novus Biologicals. Oligonucleotides 5′-[…] End-labeled oligos (1 μmol/L) were annealed in a buffer system with 10 mM Tris, 50 mM NaCl, pH 8.0 by heating at 95° C. for 5 min, then slowly cooled to 65° C. for 30 min incubation, and cooled to room temperature. […] Compounds were incubated with KLF10 in a reaction system for 4 hrs at room temperature, and then Biotin-labeled probes were added for a 1 hr incubation. Binding reactions were electrophoresed for 80 min at 100 volts on 6% polyacrylamide gel in 0.5×TBE. The binding reactions were transferred to nylon membranes at 100 volts for 45 min, and transferred DNA was cross-linked to membrane using an HL-2000 Hybrilinker instrument. Biotin-labeled DNAs were detected by chemiluminescence.

[3] = KLF10 reporter activity, 100 μM, Table 1, read-out: % Inhibition at 100 μM (± sd)
[4] = concentration that inhibited 50% of KLF10 reporter activity, Table 1, read-out: IC50

Cc1cc(C(=O)Nc2cnc(O)nc2O)ccc1[N+](=O)[O-] [#77]
inhibition at 100 µM (KLF10 [1]; [3]): 61.7 ± 2.6%
IC50 (KLF10 [1]; [4]): 10 µM

Cc1ccc(C(=O)c2cc(O)c(O)c([N+](=O)[O-])c2)cc1 [Tolcapone, reference compound]
inhibition at 100 µM (KLF10 [1]; [3]): 71.8 ± 0.9%
IC50 (KLF10 [1]; [4]): 50 µM

c1cc(-c2sc(-c3ccncc3)c(-c3ccncc3)c2-c2ccncc2)ccn1 [GANT58]
GLI-induced transcription (GLI): inhibited

CN(C)c1ccccc1CN1CCCN(Cc2ccccc2N(C)C)C1c1ccncc1 [GANT61]
GLI-induced transcription (GLI): inhibited

OC1=CN=C(O)/C1=C/Nc1ccccc1O [#82]
inhibition at 100 µM (KLF10 [1]; [3]): 31.9 ± 0.4%

Cc1sc2nc(SCC(=O)c3ccc(O)c(O)c3)nc(O)c2c1C [#15-09]
inhibition of the percentage of CD4+CD25+ T regs (CD4+CD25− T cells): 29.2%
inhibition of Foxp3 expression (Foxp3): 90.8%

Cc1ccc(OCC(=O)c2cc(C)c(O)cc2O)cc1 [#48]
inhibition of the percentage of CD4+CD25+ T regs (CD4+CD25− T cells): 57.4%
inhibition of Foxp3 expression (Foxp3): 84.7%
B16 melanoma tumor inhibition (B16 melanoma tumor; local injection Day 0, 20 mg/kg, FIG. 11): inhibits
B16 melanoma tumor model inhibition (B16 melanoma tumor; systemic delivery i.p. Day 3, 200 mg/kg, FIG. 12): inhibits
prostate TRAMP-C2 tumor inhibition (prostate TRAMP-C2 tumors): inhibits
TGF-beta1 expression in CD4+ T cells from tumors (TGF-beta1): reduced TGF-beta1 expression
induction of luciferase activity by exogenous KLF10 expression blocked (KLF10 [1]; 100 μM, FIG. 1C): 96.6%
inhibition at 100 µM (KLF10 [1]; [3]): 54.5 ± 8%
inhibition at 100 µM (KLF10 [1]; KLF10 reporter activity, 100 μM, Table 2, read-out: % Inhibition 100 μM (± sd)): 54.5 ± 8%
IC50 (KLF10 [1]; KLF10 reporter activity, Table 2, read-out: IC50): 112 µM
IC50 (KLF10 [1]; [4]): 112 µM
IC50 (KLF10 [1]; non-linear regression of dose-response, FIG. 2A-2C, read-out: IC50 on KLF10 transcriptional activity): 112 µM
inhibition at 8 µM (KLF10 [2]; 8 μM): 11%
inhibition at 40 µM (KLF10 [2]; 40 μM): 25%
